This is an account of results in US4068074A, “Cephalosporin derivatives having at the 3-position of the cephem ring a heterocyclic thiomethyl group with a carboxy or sulfo group and at the 7-position of the cephem ring an α-heterocylic acylaminophenyl-acetamide group” (priority 1974, dated 1978).

In brackets after ≈: the same amount, converted by molar mass. Where two headings read alike, the source gives them in different places.

Holding throughout (type): cell-based
Assay [1] has as its system Pseudomonas aeruginosa ATCC 8689. The assay is described as follows: MIC against bacteria (Table I), strain (4). From the text: (§1) Now, for illustrating the excellent pharmacological effects of the compounds of this invention, the values of MIC (γ/ml.) of the compounds against various bacteria are shown in Table 1, in which the compounds of this invention used are shown by example numbers.
(4) Pseudomonas aeruginosa ATCC 8689

Assay [2] has as its system Bacillus subtilis ATCC 6633. As to the kind of experiment: MIC against bacteria (Table I), strain (14).
Excerpt: as §1
(14) Bacillus subtilis ATCC 6633

The test system of assay [3] is Psuedomonas ovalis IMA 1002. The assay is described as follows: MIC against bacteria (Table I), strain (6). Particulars: (6) Psuedomonas ovalis IMA 1002.
Excerpt: as §1
(6) Psuedomonas ovalis IMA 1002

For assay [4], the system named is Escherichia coli kauffmann 0-1. The assay is described as follows: MIC against bacteria (Table I), strain (7).
Excerpt: as §1
(7) Escherichia coli kauffmann 0-1

For a further assay, the system named is Salmonella enteritidis. As to the kind of experiment: MIC against bacteria (Table I), strain (10). Conditions: (10) Salmonella enteritidis.
Excerpt: as §1
(10) Salmonella enteritidis

The test system of assay [5] is Pseudomonas aeruginosa 99 (Gentamycin resistant). The assay is described as follows: MIC against bacteria (Table I), strain (5). Conditions: (5) Pseudomonas aeruginosa 99 (Gentamycin resistant).
Excerpt: as §1
(5) Pseudomonas aeruginosa 99 (Gentamycin resistant)

The subject of assay [6] is Staphylococcus aureus 209P. As to the kind of experiment: MIC against bacteria (Table I), strain (16).
Excerpt: as §1
(16) Staphylococcus aureus 209P

Assay [7] has as its system Klebsiella pneumoniae ATCC 10031. As to the kind of experiment: MIC against bacteria (Table I), strain (8). Conditions: (8) Klebsiella pneumoniae ATCC 10031.
Excerpt: as §1
(8) Klebsiella pneumoniae ATCC 10031

Assay [8] relates to Bacillus megatherium 10778. The assay is described as follows: MIC against bacteria (Table I), strain (13).
Excerpt: as §1

Another assay concerns Proteus vulgaris OXK US. The assay is described as follows: MIC against bacteria (Table I), strain (1). Particulars: (1) Proteus vulgaris OXK US.
Excerpt: as §1
(1) Proteus vulgaris OXK US

The next assay relates to Staphylococcus Onuma. The assay is described as follows: MIC against bacteria (Table I), strain (18).
Excerpt: as §1
(18) Staphylococcus Onuma

Assay [9] deals with Proteus mirabilis IXM OM-19. The assay is described as follows: MIC against bacteria (Table I), strain (3).
Excerpt: as §1
(3) Proteus mirabilis IXM OM-19

In assay [10] the test system is Staphylococcus Shimanishi. As to the kind of experiment: MIC against bacteria (Table I), strain (17). Conditions: (17) Staphylococcus Shimanishi.
Excerpt: as §1
(17) Staphylococcus Shimanishi

The next assay relates to Proteus vulgaris 0X 19US. As to the kind of experiment: MIC against bacteria (Table I), strain (2).
Excerpt: as §1
(2) Proteus vulgaris 0X 19US

In assay [11] the test system is Shigella flexneri 2a 1675. The assay is described as follows: MIC against bacteria (Table I), strain (11). Conditions: 2A1675.
Excerpt: as §1

The test system of a further assay is Shigella sonnei II 37148. The assay is described as follows: MIC against bacteria (Table I), strain (12). Conditions: II37148.
Excerpt: as §1

The next assay deals with Salmonella typhi H901 W. The assay is described as follows: MIC against bacteria (Table I), strain (9).
Excerpt: as §1
(9) Salmonella typhi H901 W

Assay [12] concerns Micrococcus flavus ATCC 10240. The assay is described as follows: MIC against bacteria (Table I), strain (15).
Excerpt: as §1
(15) Micrococcus flavus ATCC 10240

Where [13] appears, read: ATCC8689, (4) Pseudomonas aeruginosa ATCC 8689, read-out: MIC.
[14] abbreviates: ATCC6633, (14) Bacillus subtilis ATCC 6633, read-out: MIC.
Where [15] appears, read: Salmonella enterica, read-out: MIC.
The mark [16] stands for this setting: (16) Staphylococcus aureus 209P, read-out: MIC.
Where [17] appears, read: (13) Bacillus megatherium 10778, read-out: MIC.
The mark [18] stands for this setting: (18) Staphylococcus Onuma, read-out: MIC.
The mark [19] stands for this setting: IXMOM19, (3) Proteus mirabilis IXM OM-19, read-out: MIC.
Where [20] appears, read: ATCC10240, (15) Micrococcus flavus ATCC 10240, read-out: MIC.

As for `O=C(O)CSc1nnc(SCC2=C(C(=O)O)N3C(=O)[C@@H](NC(=O)[C@H](NC(=O)c4csccc4=O)c4ccccc4)[C@H]3SC2)s1` [Example 10], the MIC amounted to 25 µg/mL (≈ 36.1 µM) in [1] (setting [13]); 0.19 µg/mL (≈ 0.275 µM) in [2] (setting [14]); 50 µg/mL (≈ 72.3 µM) in assay [3] (read-out: MIC); 6.25 µg/mL (≈ 9.03 µM) in [4] (Escherichia coli); 0.19 µg/mL (≈ 0.275 µM) in the assay with Salmonella enteritidis (setting [15]); 50 µg/mL (≈ 72.3 µM) in assay [5] (read-out: MIC). In addition, the MIC in assay [6] (setting [16]) was 0.39 µg/mL (≈ 0.564 µM); in [7] (ATCC10031, read-out: MIC), 3.13 µg/mL (≈ 4.52 µM); in assay [8] (setting [17]) it was 0.39 µg/mL (≈ 0.564 µM); in the assay on Proteus vulgaris OXK US (read-out: MIC), under 0.09 µg/mL; in the assay with Staphylococcus Onuma (setting [18]), 3.13 µg/mL (≈ 4.52 µM); in assay [9] (setting [19]) it was 0.39 µg/mL (≈ 0.564 µM). The MIC in assay [10] (read-out: MIC) is 3.13 µg/mL (≈ 4.52 µM); in the assay on Proteus vulgaris 0X 19US (0X19US, (2) Proteus vulgaris 0X 19US, read-out: MIC), under 0.09 µg/mL; in assay [11] (Shigella flexneri), 1.56 µg/mL (≈ 2.25 µM); against Shigella sonnei II 37148 (Shigella sonnei) it was 6.25 µg/mL (≈ 9.03 µM); in the assay with Salmonella typhi H901 W (Salmonella enterica, TYPHI), 1.56 µg/mL (≈ 2.25 µM); in [12] (setting [20]), 3.13 µg/mL (≈ 4.52 µM).

Take `O=C(O)C1=C(CSc2nnc(C(=O)O)s2)CS[C@@H]2[C@H](NC(=O)[C@H](NC(=O)c3cnccc3O)c3ccccc3)C(=O)N12` [Example 11, 7-[D-α-(4-hydroxynicoytinoylamido)-α-phenylacetamido]-3-(5-carboxy-1,3,4-thiadiazol-2-yl)thiomethyl-Δ^3-cephem-4-carboxylic acid]: the MIC in assay [1] (Pseudomonas aeruginosa, ATCC8689) is 25 µg/mL (≈ 39.8 µM); in assay [2] (setting [14]), 0.39 µg/mL (≈ 0.62 µM); in assay [3] (read-out: MIC), 12.5 µg/mL (≈ 19.9 µM); in assay [4] (Escherichia coli) it was 25 µg/mL (≈ 39.8 µM); with Salmonella enteritidis (setting [15]), 0.39 µg/mL (≈ 0.62 µM); in [5] (read-out: MIC) it was 12.5 µg/mL (≈ 19.9 µM). The MIC in [6] (setting [16]) worked out at 0.39 µg/mL (≈ 0.62 µM); in assay [7] (ATCC10031, read-out: MIC), 3.13 µg/mL (≈ 4.98 µM); in assay [8] (setting [17]) it was 0.39 µg/mL (≈ 0.62 µM); in the assay on Proteus vulgaris OXK US (read-out: MIC), 0.39 µg/mL (≈ 0.62 µM); against Staphylococcus Onuma (Staphylococcus), 6.25 µg/mL (≈ 9.94 µM); in [9] (setting [19]) it was 0.56 µg/mL (≈ 0.891 µM). For the same molecule, the MIC was determined as 3.13 µg/mL (≈ 4.98 µM) in assay [10] (read-out: MIC); 6.25 µg/mL (≈ 9.94 µM) against Proteus vulgaris 0X 19US (Proteus vulgaris, 0X19US); 6.25 µg/mL (≈ 9.94 µM) in assay [11] ((11) Shigella flexneri 2a 1675, read-out: MIC); 25 µg/mL (≈ 39.8 µM) in the assay with Shigella sonnei II 37148 ((12) Shigella sonnei II 37148, read-out: MIC); 0.78 µg/mL (≈ 1.24 µM) in the assay with Salmonella typhi H901 W (Salmonella enterica, TYPHI); 6.25 µg/mL (≈ 9.94 µM) in assay [12] (Micrococcus flavus, ATCC10240).

`Cc1cncc(C(=O)N[C@@H](C(=O)N[C@@H]2C(=O)N3C(C(=O)O)=C(CSc4nnc(SCC(=O)O)s4)CS[C@H]23)c2ccccc2)c1O` [Example 27, 7-[D-α-(4-hydroxy-3-methylpyridin-5-ylcarboxamido)-α-phenylacetamido]-3-(5-carboxymethylthio-1,3,4-thiadiazol-2-yl)thiomethyl-Δ^3-cephem-4-carboxylic acid]: the MIC in assay [1] (setting [13]) amounted to 12.5 µg/mL (≈ 18.1 µM); in assay [2] (Bacillus subtilis, ATCC6633), 0.78 µg/mL (≈ 1.13 µM); in [3] (read-out: MIC) it was 25 µg/mL (≈ 36.3 µM); in [4] (Escherichia coli) it was 3.13 µg/mL (≈ 4.54 µM); in assay [5] (read-out: MIC), 6.25 µg/mL (≈ 9.07 µM); in assay [6] (Staphylococcus aureus, 209P), 1.56 µg/mL (≈ 2.26 µM). The MIC was 1.56 µg/mL (≈ 2.26 µM) in assay [7] (ATCC10031, read-out: MIC); 0.78 µg/mL (≈ 1.13 µM) in [8] (Bacillus, 10778); under 0.09 µg/mL in the assay with Proteus vulgaris OXK US (read-out: MIC); 6.25 µg/mL (≈ 9.07 µM) with Staphylococcus Onuma (setting [18]); 0.78 µg/mL (≈ 1.13 µM) in [9] (Proteus mirabilis, IXMOM19); 6.25 µg/mL (≈ 9.07 µM) in [10] (read-out: MIC). In addition, the MIC in the assay on Proteus vulgaris 0X 19US (Proteus vulgaris, 0X19US) turned out to be 0.78 µg/mL (≈ 1.13 µM); in assay [11] (Shigella flexneri), 0.78 µg/mL (≈ 1.13 µM); in the assay on Shigella sonnei II 37148 (Shigella sonnei), 3.13 µg/mL (≈ 4.54 µM); in the assay with Salmonella typhi H901 W (Salmonella enterica, TYPHI), 0.78 µg/mL (≈ 1.13 µM); in [12] (setting [20]), 6.25 µg/mL (≈ 9.07 µM).

As for `O=C(O)CSc1nnc2sc(SCC3=C(C(=O)O)N4C(=O)C(NC(=O)[C@H](NC(=O)c5cnccc5O)c5ccccc5)[C@H]4SC3)nn12` (stereo partly drawn) [Example 34, 7-[D-α-(4-hydroxynicotinoyl-amido)-α-phenylacetamido]-3-(5-carboxymethylthio-[1,2,4]-triazolo-[3,4-b]-[1,3,4]-thiadiazol-2yl)thiomethyl-Δ^3-cephem-4-carboxylic acid], the MIC in [1] ((4) Pseudomonas aeruginosa ATCC 8689) is 25 µg/mL (≈ 35 µM); in assay [2] ((14) Bacillus subtilis ATCC 6633), 1.56 µg/mL (≈ 2.18 µM); in assay [3], 25 µg/mL (≈ 35 µM); in [4] ((7) Escherichia coli kauffmann 0-1), 12.5 µg/mL (≈ 17.5 µM); against Salmonella enteritidis, 1.56 µg/mL (≈ 2.18 µM); in assay [5], 12.5 µg/mL (≈ 17.5 µM). Besides, the MIC in [6] ((16) Staphylococcus aureus 209P) is 3.13 µg/mL (≈ 4.38 µM); in assay [7] it was 12.5 µg/mL (≈ 17.5 µM); in assay [8] ((13) Bacillus megatherium 10778) it was 0.78 µg/mL (≈ 1.09 µM); with Proteus vulgaris OXK US, under 0.09 µg/mL; in the assay with Staphylococcus Onuma ((18) Staphylococcus Onuma) it was 25 µg/mL (≈ 35 µM); in assay [9] ((3) Proteus mirabilis IXM OM-19) it was 0.78 µg/mL (≈ 1.09 µM). Moreover, the MIC was 12.5 µg/mL (≈ 17.5 µM) in assay [10], 0.78 µg/mL (≈ 1.09 µM) against Proteus vulgaris 0X 19US ((2) Proteus vulgaris 0X 19US), 6.25 µg/mL (≈ 8.74 µM) against Salmonella typhi H901 W ((9) Salmonella typhi H901 W) and 12.5 µg/mL (≈ 17.5 µM) in assay [12] ((15) Micrococcus flavus ATCC 10240).
